Assay results from US10226044B2, “Agricultural and horticultural composition and method for cultivating plant” (AJINOMOTO CO., INC., priority 2014, dated 2019).

Assays:
tomato (Momotaro Fight) = experiment: Sprinkling of various compounds on tomato (Momotaro): first appearance, coloring and number of fruit; format: in vivo; conditions: per four root clumps; for number of fruit turning color to orange or red: 107th day after sowing, water: 0; for number of harvested fruits: after cultivation for 3 months after sowing, water: 8
Description: Three seeds of tomato (Momotaro Fight) were shown in compost contained in a slit pot, and cultivated in the same manner as described in Example 1, provided that the cultivation was performed in a greenhouse (daytime temperature was 25° C. (6:00 to 20:00), and night temperature was 15° C. (20:00 to 6:00)). The compost and application of fertilizer were the same or performed in the same manner as those described in Example 1. After 3 weeks, one root clump was left, and the others were thinned out. When a flower cluster of the first tier appeared, a support was put up, and after a flower cluster of the second tier appeared, pinching was performed (pinching of terminal bud). After the plants of four root clumps uniformly grew, and flower buds began to appear, water (Con.), 10 mM L-isoleucine aqueous solution (Ile), 10 mM monosodium glutamate aqueous solution (GluNa), 5 mM urea aqueous solution (Urea), or 10 mM phenylalanine aqueous solution (Phe) was sprinkled on the whole plants every two weeks. The sprinkled volume was adjusted in accordance with the growth of the plants, and it was 15 to 30 mL per one root clump. The concentration of urea was 5 mM so that nitrogen amount provided by it was the same as that provided by each of the amino acids. Then, the first appearance of fruit, ripening of fruit, and number of fruit produced were investigated for each root clump.

[1] = system: cherry tomato (Suncherry Pure); format: in vivo; conditions: 10 mM sprinkled once a week
Description: Three seeds of cherry tomato (Suncherry Pure, Tokita Seed) were shown in compost contained in a slit pot, and cultivated in the same manner as described in Example 1, provided that the cultivation was performed in a greenhouse as in Example 2. The compost and application of fertilizer were the same or performed in the same manner as those described in Example 1. One month after the sowing, each seedling was permanently planted in a 9.0-cm long pot (top diameter 9 cm, height 20 cm, bottom diameter 6.4 cm), and cultivated until harvest. As for application of fertilizer, a 200-fold diluted solution of Vegetable Life A (Otsuka Chemical) was additionally applied as a fertilizer by irrigation in a volume of 100 mL per one root clump (pot) every two days from one month after the sowing to the harvest. After the plants of four root clumps uniformly grew, and flower buds began to appear, water (Con.), 10 mM L-isoleucine aqueous solution (Ile), or 10 mM proline aqueous solution (Pro) was sprinkled on the whole plants once a week. The sprinkled volume was adjusted in accordance with the growth of the plants, and it was 15 to 30 mL per one root clump. Then, ripening of fruit, number of fruit, amino acid content of fruit juice, sugar content and acidity of fruit juice, and antioxidant capacity of fruit juice were investigated for each root clump.

[2] = system: cherry tomato (Suncherry Pure); experiment: Amino acid analysis of tomato fruit obtained with sprinkling of Ile or Pro; format: in vivo; conditions: fruit juice; plants sprinkled with 10 mM solution once a week; average of 8 fruit
Description: (§1) After the plants of four root clumps uniformly grew, and flower buds began to appear, water (Con.), 10 mM L-isoleucine aqueous solution (Ile), or 10 mM proline aqueous solution (Pro) was sprinkled on the whole plants once a week. The sprinkled volume was adjusted in accordance with the growth of the plants, and it was 15 to 30 mL per one root clump.
Mature fruit were taken from each of the cherry tomato plants sprinkled with water, Ile, or Pro, and the amino acid content was analyzed for each. Two pieces of fruit were taken from the flower cluster of the second tier of one root clump, that is, a total of 8 pieces of fruit were taken for each test group. Fruit juice was pressed out of each piece of fruit, and the fruit juice was diluted 10 times with 0.02 N HCl, and subjected to filter filtration. The amino acids contained in the obtained filtrate were measured. Measurement of the amino acids was performed with High Speed Amino Acid Analyzer L-8800 (Hitachi) according to the manual of this instrument. The amounts of the amino acids (μmol/mL) in each fruit juice filtrate were calculated, and the averages for eight pieces of fruit were used as the amino acid amounts of the corresponding test group.

[3] = system: cherry tomato (Suncherry Pure); experiment: Sugar content and acidity analysis of tomato fruit juice; format: in vivo; conditions: 10 mM sprinkled once a week
Description: as §1
Mature tomato fruit were taken from cherry tomato plants of each experimental group in the same manner as described in iii) above, and fruit juice was pressed out from each fruit. Glucose content, fructose content, and acidity of each fruit juice extract were analyzed. Analysis of glucose and fructose was performed for a 20-fold diluted solution of fruit juice by using a food analysis reagent kit, F-Kit (Saccharose (Sucrose)/D-Glucose/D-Fructose Kit (Roche)) and DU800 Spectrophotometer (Beckman Coulter) according to the manuals of the kit and instrument. Acidity analysis was performed by using a pocket acidity meter (PAL-AC1, ATAGO).

[4] = system: VR callus derived from European grape; experiment: Anthocyanin content of grape calluses treated with amino acids; format: cell-based, Vitis vinifera L.
Description: A cell line (VR, management number RPC00003) derived from European grape (Vitis vinifera L.) and stored in the Institute of Physical and Chemical Research, BioResource Center was subcultured on the MS agar medium. The subcultured VR callus was transferred to the MS agar medium containing a 5 mM solution of a different amino acid, and cultured. For the positive control, abscisic acid (ABA), for which coloring-promoting effect is known, was used at 100 μM (Jeong et al., Plant Science, 167:247-252, 2004). On the 5th day after the transfer, the callus was lyophilized and ground, and anthocyanin was extracted from it by using a 1% HCl/MeOH solution. Absorbance of the extract was measured at 530 nm, and the content of anthocyanin was measured by using cyanidine 3-glucoside as a standard substance.
(2) In the same manner as described above, anthocyanin content of grape calluses treated with isoleucine and proline, respectively, were measured.

N[C@@H](CCC(=O)O)C(=O)[O-].[Na+] [GluNa, monosodium glutamate]
number of fruit turning color to orange or red (tomato (Momotaro Fight)): 1
number of harvested fruits (tomato (Momotaro Fight)): 14

N[C@@H](Cc1ccccc1)C(=O)O [Phe, phenylalanine]
number of fruit turning color to orange or red (tomato (Momotaro Fight)): 0
number of harvested fruits (tomato (Momotaro Fight)): 8

O=C(O)[C@@H]1CCCN1 [Pro, proline, reference compound]
final crop yield: number of fruit produced, larger as compared to water (Con.) [1]: 9%
number of tomatoes that had changed color [1]: larger in the order of the tomato plants sprinkled with Ile, Pro, and water (Con.)
Ala in fruit juice [2]: 3.79 µmol/mL
Arg in fruit juice [2]: 0.13 µmol/mL
Asn in fruit juice [2]: 0.63 µmol/mL
Asp in fruit juice [2]: 1.75 µmol/mL
Cys in fruit juice [2]: 0.08 µmol/mL
Gln in fruit juice [2]: 1.57 µmol/mL
Glu in fruit juice [2]: 7.76 µmol/mL
Gly in fruit juice [2]: 0.24 µmol/mL
His in fruit juice [2]: 0.17 µmol/mL
Ile in fruit juice [2]: 0.15 µmol/mL
Leu in fruit juice [2]: 0.29 µmol/mL
Lys in fruit juice [2]: 0.27 µmol/mL
Met in fruit juice [2]: 0.14 µmol/mL
Phe in fruit juice [2]: 0.38 µmol/mL
Pro in fruit juice [2]: 0.39 µmol/mL
Ser in fruit juice [2]: 0.61 µmol/mL
Thr in fruit juice [2]: 0.27 µmol/mL
Total amino acids in fruit juice [2]: 21.13 µmol/mL
Trp in fruit juice [2]: 0.072 µmol/mL
Tyr in fruit juice [2]: 0.185 µmol/mL
Val in fruit juice [2]: 0.18 µmol/mL
γ-ABA in fruit juice [2]: 4.46 µmol/mL
acidity of the fruit, comparison of groups [3]: slightly increased
glucose content and fructose content of the fruit, comparison of groups [3]: lowest
Acidity ([3]; fruit juice of mature fruit): 0.47%
Fructose ([3]; fruit juice of mature fruit): 12.2 g/L
Glucose ([3]; fruit juice of mature fruit): 12.3 g/L
change in color of the grape callus (anthocyanin content) ([4]; Ile of 1 mM or higher, Pro compared with Ile): weaker

N[C@@H](Cc1ccc(O)cc1)C(=O)O [Try, reference compound]
Relative anthocyanin content ([4]; 5 mM amino acid in MS agar medium, 5th day after transfer, positive control 100 μM abscisic acid (ABA) taken as 100%): 0%

NC(N)=O [Urea, urea]
number of fruit turning color to orange or red (tomato (Momotaro Fight)): 1
number of harvested fruits (tomato (Momotaro Fight)): 10
